Assay results from ChEMBL document CHEMBL3400088, “Synthesis and in vitro evaluation of novel 8-aminoquinoline-pyrazolopyrimidine hybrids as potent antimalarial agents” (Bioorg Med Chem Lett, 2015).
pIC50: −log10 of the molar value.

What was measured:
Assay type in all cases: functional, organism-based
Plasmodium falciparum [1] = experiment: Antimalarial activity against drug-sensitive Plasmodium falciparum NF54 by SYBR green-based assay
Plasmodium falciparum [2] = experiment: Antimalarial activity against multidrug-resistant Plasmodium falciparum K1 by SYBR green-based assay
Plasmodium falciparum [3] = experiment: Antimalarial activity against multidrug-resistant Plasmodium falciparum W2 by SYBR green-based assay

| Structure (SMILES) | pIC50 (Plasmodium falciparum [1]) | pIC50 (Plasmodium falciparum [2]) | pIC50 (Plasmodium falciparum [3]) |
| --- | --- | --- | --- |
| Fc1cc(Nc2ccnc3ccnn23)c2ncccc2c1 | 8.41 | 8.41 |  |
| FC(F)(F)c1cc(Nc2ccnc3ccnn23)c2ncccc2c1 | 7.38 | 7.74 |  |
| c1cc(Nc2ccnc3ccnn23)c2ccncc2c1 | 5.92 | 5.80 |  |
| c1cc(Nc2ccnc3ccnn23)c2c(c1)OCCO2 | < 5.70 | < 5.70 |  |
| COc1cc(Nc2ccnc3ccnn23)c2ncccc2c1 | 7.85 | 7.59 |  |
| Cc1cc(Nc2ccnc3ccnn23)c2ncccc2c1 | 7.20 | 7.42 |  |
| C[C@@H]1CC[C@H]2[C@@H](C)C(=O)O[C@@H]3O[C@@]4(C)CC[C@@H]1[C@]32OO4 [ARTEMISININ] | 8.15 |  |  |
| Cc1nccc(Nc2cccc3cccnc23)n1 | < 6.30 | < 6.30 |  |
| Cc1ccc2cccnc2c1Nc1ccnc2ccnn12 | < 5.70 | < 5.70 |  |
| N#Cc1cnc2cc(C3CC3)nn2c1Nc1cccc2cccnc12 | 5.80 | 5.70 |  |
| O=C1C(O)=C([C@H]2CC[C@H](c3ccc(Cl)cc3)CC2)C(=O)c2ccccc21 [ATOVAQUONE] |  | 8.64 |  |
| COc1cc(C)c2c(Oc3cccc(C(F)(F)F)c3)c(OC)cc(NC(C)CCCN)c2n1 (stereo not given) [TAFENOQUINE] |  |  | 6.66 |
| Cc1cc(Nc2cccc3cccnc23)n2nccc2n1 | > 8.41 | 8.17 |  |
| Cc1nc2cccc(Nc3cccc4cccnc34)c2o1 | 5.89 | 5.80 |  |
| Cc1ccc2cccc(Nc3ccnc4ccnn34)c2n1 | 5.77 | 5.92 |  |
| c1cnc2c(Oc3ccnc4ccnn34)cccc2c1 | < 5.70 | < 5.70 |  |
| Cc1cc(Nc2cccc3cccnc23)n2ncnc2n1 | 6.06 | 6.12 |  |
| COc1cc(NC(C)CCCN)c2ncccc2c1 (stereo not given) [PRIMAQUINE] |  |  | 5.83 |
| Cc1nn2c(Nc3cccc4cccnc34)c(C#N)cnc2c1C | 7.59 | 7.57 |  |
| N#Cc1cnn2c(Nc3cccc4cccnc34)ccnc12 | 7.15 | 7.29 |  |
| c1cnc2c(Nc3ccnc4ncnn34)cccc2c1 | 5.85 | 6.08 |  |
| c1cnc2c(Nc3ccnc4ccnn34)cccc2c1 | 8.28 | 8.11 |  |
